Test results taken from BindingDB's records for doi:10.1016/j.bmcl.2008.12.079 (Gilead Sciences, 2009).

Target: T1, Gag-Pol polyprotein [1148-1435] (Human immunodeficiency virus 1, UniProt P04585)
T1 construct: 1148-1435
Assay: DNA Strand-Transfer Activity Assay
Conditions: pH 7.3; 22 °C
Description: In the strand-transfer assay, the biotinylated donor DNA was bound to streptavidin-coated plates, and integrase was added to each well to allow processing of the donor DNA. Serially diluted compounds and DIG-tagged target DNA were then added to each well, and 3-end joining reaction was allowed to proceed for 30 min. Signal was detected using horseradishperoxidase-conjugated anti-Digoxin antibody through chemiluminescence measurement.

COc1c2c(c(O)c3ncc(Cc4ccc(F)cc4)cc13)C(=O)N(C)C2 [3-[(4-fluorophenyl)methyl]-9-hydroxy-5-methoxy-7-methyl-6H,7H,8H-pyrrolo[3,4-g]quinolin-8-one] showed an IC50 of 100 nM.
